Where no end group is shown, it is not given here.
How the values were obtained:
Assay type in all cases: cell-based, human
[1] = tested on: melanoma specific CTL VMM5; test: Reconstitution of melanoma-specific CTL epitope on peptide-pulsed 51Cr-labelled T2 cells, chromium release assay, VMM5 CTL; conditions: for effect on epitope reconstitution: concentrations up to 10 nM
Experimental: (§1) Cell-mediated killing was determined in vitro using a 4-h chromium release assay. 51Cr-labeled target cells were plated at 2×10^3 cells/well in triplicate on 96-well V-bottom plates (Costar, Cambridge, Mass.) with varying numbers of effector cells in a final volume of 250 microl. Wells containing either culture medium and target cells only or 1 M HCl and target cells served as background 51Cr release controls and total release controls, respectively. The plates were centrifuged at 100×g for 3 min and incubated at 37° C. in 5% CO2 for 4 h. The plates were again centrifuged, and 0.20 ml of medium from each well was removed for counting in a gamma counter. The cytotoxic index was calculated as: [formula] […] Effector cells were added in 100 microl assay medium to give an E:T ratio of 10:1, and were incubated at 37° C. The remainder of the assay is performed as in standard chromium release assays described above. Wells containing peptide and target cells but no CTL were used as controls to rule out toxicity of the peptides themselves. […] HLA-A2.1 molecules were immunoaffinity purified from detergent lysates of the human melanoma cell line DM6. The associated peptides were released by acid extraction, separated from HLA-A2.1 and antibody by filtration, and fractionated by multiple stages of HPLC. […] L. Slingluff Jr., et al, J. Immunol. (1993) […], 2955, by using a gradient of acetonitrile/0.085% trifluoroacetic acid (TFA) in 0.1% TFA with acetonitrile increasing from 0 to 9% (0-5 min), 9 to 36%(5-55min), 36 to 60% (55-62min) (v/v), collecting one-minute fractions. In FIG. 8B Fractions 2 and 3 from the separation shown in panel A were pooled and rechromatographed with a 55 minute gradient of 0 to 30% acetonitrile/0.1% heptafluorobutyric acid (HFBA) in 0.1% HFBA, collecting one-minute fractions. For both panels, peptide fractions were incubated for 2-3 h with 2×10^3 51Cr-labelled T2 cells in 150 ll assay media per well in 96-well plates. […]

[2] = tested on: melanoma specific CTL DM204-13; test: Reconstitution of melanoma-specific CTL epitope on peptide-pulsed 51Cr-labelled T2 cells, chromium release assay, DM204-13 CTL; conditions: for effect on epitope reconstitution: concentrations up to 10 nM
Experimental: as §1

[3] = tested on: HLA-A2.1 restricted melanoma specific CTL lines (VMM5, VMM6, DM169-13, DM204-13, LD1); test: Chromium release assay, peptide-preincubated T2 cells, panel of HLA-A2.1 restricted melanoma specific CTL lines from different patients; conditions: for activity in reconstituting recognition by CTL lines from 3 additional patients: at equal or higher concentrations than 946 (0.1-1 nM)
Experimental: Cell-mediated killing was determined in vitro using a 4-h chromium release assay. 51Cr-labeled target cells were plated at 2×10^3 cells/well in triplicate on 96-well V-bottom plates (Costar, Cambridge, Mass.) with varying numbers of effector cells in a final volume of 250 microl. Wells containing either culture medium and target cells only or 1 M HCl and target cells served as background 51Cr release controls and total release controls, respectively. The plates were centrifuged at 100×g for 3 min and incubated at 37° C. in 5% CO2 for 4 h. The plates were again centrifuged, and 0.20 ml of medium from each well was removed for counting in a gamma counter. The cytotoxic index was calculated as: [formula] […] Effector cells were added in 100 microl assay medium to give an E:T ratio of 10:1, and were incubated at 37° C. The remainder of the assay is performed as in standard chromium release assays described above. Wells containing peptide and target cells but no CTL were used as controls to rule out toxicity of the peptides themselves. […] To determine whether peptide 946 was a generally relevant epitope for HLA-A2.1 restricted melanoma specific CTL, lines from 3 additional patients were tested. CTL lines VMM5 and VMM6 were generated by stimulation with autologous tumor. VMM5 CTL were maintained on allogeneic A2.1^+ melanoma DM6 after specificity was obtained, C. L. Slingluff Jr. et al., J. Immunol. 150, 2955 (1993). DM169-13 and DM204-13 CTL were generated by stimulation with allogeneic A2.1^+ melanoma DM13, N. J. Crowley et al., J. Immunol. 146, 1692 (1991), then maintained with DM6. LD1 CTL were stimulated on a rotating schedule of stimulating logeneic A2.1^+ melanomas DM6, DM13, and DM93. DM93 is an HLA-A2.1^+ melanoma used as a positive control. […] T2 cells were preincubated with the peptides whose (M+H)^+ values are indicated in the legend, FIG. 12. […] All other peptides were used at a concentration of 10 nM except 250 nM for DM169 and 0.1 nM for LD1. Asterisks (*) mark peptides not evaluated. The sequences of the peptides 864 (Seq. ID No. 88), 946 (Seq. ID No. 39), 1046 (Seq. ID No. 89) are described in the text. Peptide 1030 has the sequence […] (SEQ ID NO:90), (related to peptide from tyrosinase. molecule). […] An additional peptide Try […] (SEQ ID NO 96), which originates from tyrosinase and had been identified by Boon and colleagues as an HLA-A2.1 restricted melanoma specific T cell epitope, was also evaluated. None of 4 CTL lines recognized cells incubated with this peptide.

[4] = T2 cells, synthetic peptide with equimolar Leu/Ile at X, read-out: half-maximal reconstitution of the epitope

For “Ala Xaa Tyr Asp Ala Thr Tyr Glu Thr [Peptide 1046]”, the “effect on epitope reconstitution” value [1] was “no effect”, the “effect on epitope reconstitution” value [2] was “no effect” and the “activity in reconstituting recognition by CTL lines from 3 additional patients” value [3] was “neither 864 nor 1046 had any detectable activity”.

With SMAPGNTSV [Peptide 864] the “effect on epitope reconstitution” value [1] was “no effect”, the “effect on epitope reconstitution” value [2] was “no effect” and the “activity in reconstituting recognition by CTL lines from 3 additional patients” value [3] was “neither 864 nor 1046 had any detectable activity”.

In the case of “Try Met Asn Gly Thr Met Ser Gln Val (YMNGTMSQV) [SEQ ID NO 96, originates from tyrosinase, reference compound]”, the “CTL lines that recognized cells incubated with the peptide” value ([3]; 4 CTL lines tested) is reported as “None of 4”.

“Tyr Xaa Glu Pro Gly Pro Val Thr Ala [Peptide 946]” gave an EC50 [1, 4] of 1 to 10 pM, an EC50 [2, 4] of 1 to 10 pM and an EC50 ([3]; dose response curves for two of the 3 additional CTL lines, read-out: half-maximal lysis) of 1 to 10 pM. For the same substance, the “patients / CTL lines whose T-cells recognized the HLA-A2.1-associated peptide” value ([3]; five melanoma-specific CTL lines from five patients) was 5 out of 5 and all five lines recognize and the “reconstitution of recognition by CTL lines from 3 additional patients” value ([3]; peptide at 0.1-1 nM, T2 cells, FIG. 12) was “reconstituted recognition”.
